Data: US20120107277A1, “USE OF THE COMBINATION OF TERIFLUNOMIDE AND INTERFERON BETA FOR TREATING MULTIPLE SCLEROSIS” (SANOFI-AVENTIS U.S LLC, priority 2009, published 2012)

Key:
Format in all cases: in vivo, human
[1] = system: relapsing-remitting multiple sclerosis patient; test: Safety (TEAE, laboratory data), 48-week double-blind treatment period (Example 2); conditions: 48 weeks
Experimental: (§1) A placebo-controlled, double-blinded, randomized, 3-parallel group stratified study was conducted in relapsing-remitting multiple sclerosis patient who were concurrently on a stable dose of interferon beta. The dose level of interferon beta was defined as follows: • Low dose: AVONEX® (interferon beta-1a) 30 mcg once a week intramuscularly, or REBIF® (interferon beta-1a) 22 mcg three times per week subcutaneously. • High dose: REBIF® 44 mcg three times per week subcutaneously, or BETASERON® (interferon beta-1b) 0.25 mg every other day subcutaneously.
(§2) Design/Methods: 86 of the 116 patients that were randomized to treatment (placebo: 41; 7 mg: 37; 14 mg: 38) for the first 6-months in Example 1 completed this 6-month period and accepted to continue medication for an additional 6-month period (placebo: 31, 7 mg: 28, 14 mg: 27). Safety was evaluated from TEAE, physical exam (every 6 weeks), laboratory data (every 6 weeks), ECG (at the close-out visit), pancreatic ultrasound (at the close-out visit) and brain MRI (at the close-out visit). Relapses were recorded and EDSS was performed every 6-weeks. Annualized relapse rates (ARR) were estimated by a Poisson model adjusted to IFN strata and to geographical regions. The following results report the entire 48-week double-blind treatment period.

[2] = system: relapsing-remitting multiple sclerosis patient; test: Brain MRI Gd-enhancing T1-lesions, 24-week add-on study (Example 1); conditions: for Patients with >=1 Gd-enhancing T1-lesions post-baseline, No (% of patients; free of T1-Gd lesions): 24 weeks, ITT; for Relative risk reduction in the number of T1-Gd lesions compared with placebo added to IFN-beta / Relative reduction of T1-Gd lesion volume compared to placebo: 24 week; for Relative risk reduction in the number of T1-Gd lesions compared with placebo added to IFN-beta: adjusted
Experimental: as §1
(§3) Around 40 patients were treated in each treatment group (placebo: 41, 7 mg: 37, and 14 mg: 38). A third of patients in each group were treated with low dose interferon beta 1a. […] The mean age of the study population was 40.1 years. […] The base line Expanded Disability Status Scale (EDSS) score was similar between treatment groups (around 2.5).
(§4) Safety was evaluated from Treatment Emergent Adverse Event (TEAE), physical examination and laboratory data (e.g. Liver Function Test, every 2-8 weeks), ECG and abdominal ultrasound (24-weeks). Brain MRI (magnetic resonance image) activity, including T1-gadolinium (T1-Gd) with central reading were recorded every 8-week. Relapses were recorded and EDSS was performed at 24-week.

[3] = system: relapsing-remitting multiple sclerosis patient; test: Safety (TEAE, laboratory data), 24-week add-on study (Example 1); conditions: 24 weeks
Experimental: as §1, §3, §4

[4] = system: relapsing-remitting multiple sclerosis patient; test: MS relapse, 48-week double-blind treatment period (Example 2)
Experimental: as §1, §2

[5] = system: relapsing-remitting multiple sclerosis patient; test: Brain MRI Gd-enhancing T1-lesions, 48-week double-blind treatment period (Example 2); conditions: for Patients with >=1 Gd-enhancing T1-lesions post-baseline, No (% of patients; free of T1-Gd lesions): 48 weeks, ITT; for Relative risk reduction in the number of T1-Gd lesions compared with placebo added to IFN-beta / Relative reduction of T1-Gd lesion volume compared to placebo: 48 week; for Relative risk reduction in the number of T1-Gd lesions compared with placebo added to IFN-beta: adjusted
Experimental: as §1, §2

[6] = system: relapsing-remitting multiple sclerosis patient; test: MS relapse, 24-week add-on study (Example 1); conditions: 24 weeks, ITT
Experimental: as §1, §3, §4

[7] = 7 mg teriflunomide added to stable-dose IFN-beta
[8] = 14 mg teriflunomide added to stable-dose IFN-beta
[9] = 14 mg teriflunomide in addition to stable-dose IFN-beta, p<0.0001
[10] = 7 mg teriflunomide added to stable-dose interferon beta
[11] = 14 mg teriflunomide added to stable-dose interferon beta

## C/C(O)=C(\C#N)C(=O)Nc1ccc(C(F)(F)F)cc1 [teriflunomide, (Z)-2-cyano-3-hydroxy-but-2-enoic acid-(4′-trifluoromethylphenyl)-amide]
[1]; [7]
  Patients with ALT increased above 3ULN without concomitant increase in bilirubin (number): 1
  TEAE all gastrointestinal disorders: 18.9%
  TEAE all type of headaches: 5.4%
  TEAE upper respiratory tract infections as a whole: 16.2%
  TEAEs that led to treatment discontinuation (number): 3
  White blood cell counts decreases (number): 3
[1]; [8]
  Patients with ALT increased above 3ULN without concomitant increase in bilirubin (number): 3
  TEAE all gastrointestinal disorders: 31.6%
  TEAE all type of headaches: 18.4%
  TEAE upper respiratory tract infections as a whole: 23.7%
  TEAEs that led to treatment discontinuation (number): 3
  White blood cell counts decreases (number): 4
[2]; 7 mg teri + IFN-β
  Patients with >=1 Gd-enhancing T1-lesions post-baseline, No (% of patients; free of T1-Gd lesions): 69.4%
[2]; 7 mg teriflunomide in addition to stable-dose IFN-beta, p=0.0009
  Relative risk reduction in the number of T1-Gd lesions compared with placebo added to IFN-beta: 82.6%
[2]; 7 mg teriflunomide in addition to stable-dose IFN-beta, p=0.1931
  Relative reduction of T1-Gd lesion volume compared to placebo: 67.6%
[2]; 14 mg teri + IFN-β
  Patients with >=1 Gd-enhancing T1-lesions post-baseline, No (% of patients; free of T1-Gd lesions): 81.6%
[2]; [9]
  Relative risk reduction in the number of T1-Gd lesions compared with placebo added to IFN-beta: 84.4%
[2]; 14 mg teriflunomide in addition to stable-dose IFN-beta, p=0.0072
  Relative reduction of T1-Gd lesion volume compared to placebo: 64.7%
[3]; [10]
  Proportion of patients with ALT/SGPT greater than 3xULN: 0%
  Proportion of patients with TEAE due to increased ALT/SGPT: 13.5%
  Proportion of patients with TEAE potentially related to immunosuppression (white blood cell counts, infections and infestations): 49%
  Upper respiratory tract infections (nasopharyngitis, sinusitis), proportion of patients: 10.8%
[3]; [11]
  Proportion of patients with ALT/SGPT greater than 3xULN: 5.3%
  Proportion of patients with TEAE due to increased ALT/SGPT: 28.9%
  Proportion of patients with TEAE potentially related to immunosuppression (white blood cell counts, infections and infestations): 50%
  Upper respiratory tract infections (nasopharyngitis, sinusitis), proportion of patients: 23.7%
[3]; all groups, 7 mg or 14 mg teriflunomide added to stable-dose interferon beta
  Concomitant bilirubin increase (with ALT/SGPT increase): no case
[4]; 7 mg teriflunomide in addition to stable-dose IFN-beta, p=0.43
  Reduction in annualized relapse rate compared to IFN-beta: 32.6%
[4]; 14 mg teriflunomide in addition to stable-dose IFN-beta, p=0.11
  Reduction in annualized relapse rate compared to IFN-beta: 57.9%
[5]; 7 mg teri + IFN-β
  Patients with >=1 Gd-enhancing T1-lesions post-baseline, No (% of patients; free of T1-Gd lesions): 69.4%
[5]; 7 mg teriflunomide in addition to stable-dose IFN-beta, p=0.0005
  Relative risk reduction in the number of T1-Gd lesions compared with placebo added to IFN-beta: 84.6%
[5]; 7 mg teriflunomide in addition to stable-dose IFN-beta, p=0.1104
  Relative reduction of T1-Gd lesion volume compared to placebo: 72.1%
[5]; 14 mg teri + IFN-β
  Patients with >=1 Gd-enhancing T1-lesions post-baseline, No (% of patients; free of T1-Gd lesions): 76.3%
[5]; [9]
  Relative risk reduction in the number of T1-Gd lesions compared with placebo added to IFN-beta: 82.8%
[5]; 14 mg teriflunomide in addition to stable-dose IFN-beta, p=0.0154
  Relative reduction of T1-Gd lesion volume compared to placebo: 70.6%
[6]; 7 mg teri + IFN-β, 16.4 patient-years followed
  Total number of relapses: 5
[6]; 14 mg teri + IFN-β, 17.3 patient-years followed
  Total number of relapses: 2
